Patent US12221406B2, “Compounds as NLRP3 inflammasome inhibitors and compositions and uses thereof” (VIRGINIA COMMONWEALTH UNIVERSITY, priority 2019, dated 2025)

Legend:
NLRC4 inflammasome = target: T1, NLRC4 inflammasome (Mus musculus, UniProt Q3UP24); assay: NLRC4 inflammasome assay in J774A.1 cells (LPS/flagellin, IL-1β ELISA); assay type: cell-based, murine; settings: compound 10 μM
T1 construct: endogenous in cells; host or cells: J774A.1 murine macrophage cell line (LPS + transfected flagellin)
Method: (§1) J774A.1 cells were plated into a 96-well plate. […] Cells were treated with LPS (1 μg/mL) and test compounds for 1 h. Flagellin or poly-deoxyadenylic-deoxythymidylic acid sodium salt (Poly(dA:dT)) was used to induce the formation of the NLRC4 and the AIM2 inflammasomes.

hCMEC/D3 cells = assay: Cytotoxicity on hCMEC/D3 cells (Live/Dead kit); assay type: cell-based, human; settings: 20 μM, 2 h
[1] = In vivo BBB penetration in mice, plasma and brain by LC-MS/MS; parameters: species or system C57BL/6 mice; settings: PO 20 mg/kg
Method: (§2) […]. […] […]. Plasma samples ([…]) were collected at 0.08, 0.17, 0.25, 0.5, 0.75, 1.0, 2.0, 4.0, 8.0, 12.0, and 24.0 h time points through orbital vein and were stored in −80° C. freezer for later analysis.
(§3) Samples were mixed by vortexing for 30 seconds. […] […]. […] […].

AIM2 inflammasome = target: T2, AIM2 inflammasome (Mus musculus, UniProt Q91VJ1); assay: AIM2 inflammasome assay in J774A.1 cells (LPS/Poly(dA:dT), IL-1β ELISA); assay type: cell-based, murine; settings: compound 10 μM
T2 construct: endogenous in cells; host or cells: J774A.1 murine macrophage cell line (LPS + Poly(dA:dT))
T2 sequence (Q91VJ1 1-354): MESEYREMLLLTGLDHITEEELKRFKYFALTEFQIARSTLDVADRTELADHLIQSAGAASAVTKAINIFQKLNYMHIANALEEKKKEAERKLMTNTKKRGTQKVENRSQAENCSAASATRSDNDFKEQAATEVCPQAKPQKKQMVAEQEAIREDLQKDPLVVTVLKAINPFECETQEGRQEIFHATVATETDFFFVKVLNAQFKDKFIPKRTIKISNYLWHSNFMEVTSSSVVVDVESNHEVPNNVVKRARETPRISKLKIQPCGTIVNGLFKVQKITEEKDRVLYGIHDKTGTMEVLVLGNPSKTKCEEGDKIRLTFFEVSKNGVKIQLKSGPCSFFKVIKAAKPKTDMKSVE
Method: as §1

[2] = PK study in rats, IV and PO, plasma by LC-MS/MS; assay type: in vivo, Sprague-Dawley rats
Method: as §2, §3

C#CCNS(=O)(=O)c1ccc(CCN(Cc2cc(Cl)ccc2OCCC)C(=O)Cc2ccsc2)cc1 [SZ-N3I-45, N-(5-chloro-2-propoxybenzyl)-N-(4-(N-(prop-2-yn-1-yl)sulfamoyl)phenethyl)-2-(thio-phen-3-yl)acetamide]
effect on IL-1β production by NLRC4 inflammasome (NLRC4 inflammasome): did not significantly interfere | cytotoxicity on hCMEC/D3 cells (hCMEC/D3 cells): did not show significant toxic effects | plasma concentration ([1]; 0.5 hours): 277.33 ± 182.15 ng/mL | brain concentration after approximate conversion ([1]; 4 h): around 12 nM | effect on IL-1β production by AIM2 inflammasome (AIM2 inflammasome): did not significantly interfere | oral bioavailability (Foral) ([2]; 20 mg/kg PO vs IV): 10% | steady-state volume of distribution (Vdss) ([2]; IV 20 mg/kg): 8.5 L/kg | terminal plasma half-life (t½) ([2]; IV 20 mg/kg): 6.6 h | total clearance (CLtot) ([2]; IV 20 mg/kg): 41 mL/min/kg | cmax ([2]; PO 20 mg/kg): 73 ng/mL | tmax ([2]; PO 20 mg/kg): 12 h
